These compounds were tested on SREBP pathway (assay: SREBP luciferase reporter gene system (SRE-luciferase assay) in Huh-7/SRE-Luc cells). Conditions: Homo sapiens, sterol-deficient medium, compound treatment 16 hours, luciferase/GFP ratio.
Format: cell-based
Method: Huh-7/SRE-Luc, a human hepatocellular carcinoma cell line, was grown in a culture medium containing DMEM, 10% fetal bovine serum, 100 units/mL penicillin, 100 µg/mL streptomycin, and 200 μg/mL G418.
The Huh-7/SRE-Luc cell line is a human hepatocellular carcinoma cell line Huh-7 stably expressing LDLR promoter-luciferase and green fluorescent protein (GFP). The LDLR promoter region contains a sterol regulatory element (SRE) that can effectively and sensitively respond to the regulation of the transcription factor SREBP. The GFP signal serves as an internal reference to indicate changes in cell number. Therefore, this cell line can be used to screen for active small molecules that regulate the SREBP signaling pathway. […] Cells were incubated in a sterol-deficient medium (5% lipoprotein-deficient serum, 2 μM Lovastatin, 10 μM mevalonate) and treated with corresponding concentrations of compounds for 16 hours. After compound treatment, the cells were lysed with lysis buffer (E397A, Promega), followed by the addition of luciferase substrate (E1500, Promega). The SRE-driven luciferase activity was measured using a BioTek Synergy HTX microplate reader (including but not limited to this type of instrument). The fluorescence intensity of enhanced green fluorescent protein (EGFP) was also measured using the BioTek microplate reader (including but not limited to this type of instrument) and used as an internal reference. The ratio of SRE-driven luciferase activity to GFP fluorescence intensity was used as an indicator of SREBP pathway activity. The test data of each test compound was analyzed using Prism software to obtain the IC50 parameter of the compound.
The inhibitory effect of the compounds of the present disclosure on the SREBP pathway was tested by the method of bioassay example 2. The concentration gradient of each compound was designed as 0.01, 0.03, 0.1, 0.3, 1.0, 3.0, and […], with DMSO as a vehicle control.

SMILES | IC50 [µM]
C[C@H](CCCC1(O)CC1)[C@H]1CC[C@H]2[C@@H]3CC[C@H]4[C@@H](O)[C@@H](O)CC[C@]4(C)[C@H]3CC[C@]12C [compound 245, (1R,3aS,5aR,6R,7S,9aR,11aR)-1-[(2R)-5-(hydroxycyclopropyl)pentan-2-yl]-9a,11a-dimethylhexadecahydro-1H-cyclopenta[1,2-a]phenanthrene-6,7-diol] | 0.192
C[C@H](CCCC(C)(C)O)[C@H]1CC[C@H]2[C@@H]3CC[C@H]4C(O)(C(F)(F)F)[C@@H](O)CC[C@]4(C)[C@H]3CC[C@]12C (stereo partly drawn) [compound 246, 4-(trifluoromethyl)-5α-cholest-3β,4,25-triol] | 0.988
C[C@H](CCCC(O)c1ccccc1F)[C@H]1CC[C@H]2[C@@H]3CC[C@H]4C[C@@H](O)CC[C@]4(C)[C@H]3CC[C@]12C (stereo partly drawn) [compound 251, 24-[(2-fluorophenyl)(hydroxy)methyl]-5α-cholan-3β-ol] | 0.321
C[C@H](CCCC1(O)CC1)[C@H]1CC[C@H]2[C@@H]3CC[C@H]4C[C@@H](O)CC[C@]4(C)[C@H]3CC[C@]12C [compound 253, 24-(hydroxycyclopropyl)-5α-cholan-3β-ol] | 0.187
C[C@H](CCCC(C)(C)O)[C@H]1CC[C@H]2[C@@H]3CC[C@H]4C(C)(O)[C@@H](O)CC[C@]4(C)[C@@]3(C)CC[C@]12C (stereo partly drawn) [compound 254, 4-methyl-5α-cholest-3β,4,25-triol] | 6.19
C[C@H](CCCC(C)(C)O)[C@H]1CC[C@H]2[C@@H]3CC(=O)[C@H]4C[C@@H](O)CC[C@]4(C)[C@H]3CC[C@]12C [compound 255, 3P,25-dihydroxy-5α-cholest-6-one] | 0.452
C[C@H](CCCC(C)(C)O)[C@H]1CC[C@H]2[C@@H]3CCC4(F)C[C@@H](O)CC[C@]4(C)[C@H]3CC[C@]12C (stereo partly drawn) [compound 266, 5-fluorocholest-3β,25-diol] | 0.176
C[C@H](CCN(C)C(=O)c1ccccc1F)[C@H]1CC[C@H]2[C@@H]3CC[C@H]4C[C@@H](O)CC[C@]4(C)[C@H]3CC[C@]12C [compound 268, 2-fluoro-N-[(3R)-3-[(1R,3aS,3bR,5aS,7S,9aS,9bS,11aR)-7-hydroxy-9a,11a-dimethylhexadecahydro-1H-cyclopenta[1,2-a]phenanthren-1-yl]butyl]-N-methylbenzamide] | 0.825
C[C@H](CCCC(O)c1ccccc1F)[C@H]1CC[C@H]2[C@@H]3C(=O)C[C@H]4[C@@H](O)[C@@H](O)CC[C@]4(C)[C@H]3CC[C@]12C (stereo partly drawn) [compound 271, 24-[(2-fluorophenyl)(hydroxy)methyl]-4β-hydroxy-3β-hydroxy-5α-cholan-7-one] | 0.139
C[C@H](CCCC(C)(C)O)[C@H]1CC[C@H]2[C@@H]3C[C@H](O)[C@H]4[C@@H](O)[C@@H](O)CC[C@]4(C)[C@H]3CC[C@]12C [compound 272, 5α-cholest-3β,4P,6α,25-tetraol] | 20.1
C[C@H](CCCC(C)(C)O)[C@H]1CC[C@H]2[C@@H]3CCC4(O)C(=O)[C@@H](O)CC[C@]4(C)[C@H]3CC[C@]12C (stereo partly drawn) [compound 276, 3P,5,25-trihydroxycholest-4-one] | 0.522
C[C@H](CCCC(C)(O)c1ccccc1F)[C@H]1CC[C@H]2[C@@H]3CC[C@H]4[C@@H](O)[C@@H](O)CC[C@]4(C)[C@H]3CC[C@]12C (stereo partly drawn) [compound 278, 24-[1-(2-fluorophenyl)-1-hydroxyethyl]-5α-cholan-3β,4β-diol] | 0.106
C[C@H](CCCC(O)c1cc(F)cc(F)c1)[C@H]1CC[C@H]2[C@@H]3CC[C@H]4[C@@H](O)[C@@H](O)CC[C@]4(C)[C@H]3CC[C@]12C (stereo partly drawn) [compound 282, 24-[(3,5-difluorophenyl)(hydroxy)methyl]-5α-cholan-3β,4β-diol] | 0.117
C[C@H](CCCC(C)(C)O)[C@H]1CC[C@H]2[C@@H]3/C(=N/O)C[C@H]4C[C@@H](O)CC[C@]4(C)[C@H]3CC[C@]12C [compound 285, [(1R,3aS,3bR,4E,5aS,7S,9aS,9bS,11aR)-7-hydroxy-1-[(2R)-6-hydroxy-6-methylheptan-2-yl]-9a,11a-dimethylhexadecahydro-1H-cyclopenta[1,2-a]phenanthren-4-ylidene]hydroxylamine] | 0.793
C[C@H](CCCC(O)c1ccccc1C(F)(F)F)[C@H]1CC[C@H]2[C@@H]3CC[C@H]4[C@@H](O)[C@@H](O)CC[C@]4(C)[C@H]3CC[C@]12C (stereo partly drawn) [compound 286, 24-{hydroxy[2-(trifluoromethyl)phenyl]methyl}-5α-cholan-30,40-diol] | 0.575
C[C@H](CCCC1(O)CC1)[C@H]1CC[C@H]2[C@H]3[C@H](CC[C@]12C)[C@@]1(C)CC[C@H](O)C[C@@H]1CC3(F)F [compound 288, (1R,3aS,5aR,7S,9aS,11aR)-4,4-difluoro-1-[(2R)-5-(hydroxycyclopropyl)pentan-2-yl]-9a,11a-dimethylhexadecahydro-1H-cyclopenta[1,2-a]phenanthrene-7-ol] | 0.308
C[C@H](CCCC(O)c1c(F)cccc1F)[C@H]1CC[C@H]2[C@@H]3C(=O)C[C@H]4[C@@H](O)[C@@H](O)CC[C@]4(C)[C@H]3CC[C@]12C (stereo partly drawn) [compound 289, 24-[(2,6-difluorophenyl)(hydroxy)methyl]-4β-hydroxy-3β-hydroxy-5α-cholan-7-one] | 0.117
CC(O)C1CC[C@@]2(C)[C@@H](CC[C@@H]3[C@@H]2CC[C@]2(C)[C@@H]([C@H](C)CCCC(C)(C)O)CC[C@@H]32)C1 (stereo partly drawn) [compound 290, 3-(1-hydroxyethyl)-5α-cholest-25-ol] | 0.699
C[C@H](CCCC(C)(C)O)[C@H]1CC[C@H]2[C@@H]3CC[C@H]4C(F)(F)[C@@H](O)CC[C@]4(C)[C@H]3CC[C@]12C [compound 291, (1R,3aS,3bS,5aR,7S,9aR,9bS,11aR)-6,6-difluoro-1-[(2R)-6-hydroxy-6-methylheptan-2-yl]-9a,11a-dimethylhexadecahydro-1H-cyclopenta[1,2-a]phenanthrene-7-ol] | 0.065
C[C@H](CCCC(C)(C)O)[C@H]1CC[C@H]2[C@@H]3CC[C@H]4C[C@@H](OC(=O)CO)CC[C@]4(C)[C@H]3CC[C@]12C [compound 292, (1R,3aS,3bR,5aS,7S,9aS,9bS,11aR)-1-[(2R)-6-hydroxy-6-methylheptan-2-yl]-9a,11a-dimethylhexadecahydro-1H-cyclopenta[1,2-i]phenanthren-7-yl hydroxyacetate] | 0.171
C[C@H](CCCC(C)(C)O)[C@H]1CC[C@H]2[C@@H]3CC[C@H]4C[C@@H](OC(=O)CC(=O)O)CC[C@]4(C)[C@H]3CC[C@]12C [compound 293, 3-{[(1R,3aS,3bR,5aS,7S,9aS,9bS,11aR)-1-[(2R)-6-hydroxy-6-methylheptan-2-yl]-9a,11a-dimethylhexadecahydro-1H-cyclopenta[1,2-a]phenanthren-7-yl]oxy}-3-oxopropanoic acid] | 0.136
C[C@H](CCCC(C)(C)O)[C@H]1CC[C@H]2[C@@H]3CC[C@H]4C[C@@H](OC(=O)CCC(=O)O)CC[C@]4(C)[C@H]3CC[C@]12C [compound 294, 4-{[(1R,3aS,3bR,5aS,7S,9aS,9bS,11aR)-1-[(2R)-6-hydroxy-6-methylheptan-2-yl]-9a,11a-dimethylhexadecahydro-1H-cyclopenta[1,2-a]phenanthren-7-yl]oxy}-4-oxobutanoic acid] | 0.139
C[C@H](CCCC(C)(C)O)[C@H]1CC[C@H]2[C@@H]3C[C@@H](N)[C@H]4[C@@H](O)[C@@H](O)CC[C@]4(C)[C@H]3CC[C@]12C [compound 295, 6-amino-5α-cholest-3β,4p,25-triol] | > 10
C[C@H](CCCC(O)c1c(F)cccc1F)[C@H]1CC[C@H]2[C@@H]3C(N)C[C@H]4[C@@H](O)[C@@H](O)CC[C@]4(C)[C@H]3CC[C@]12C (stereo partly drawn) [compound 299, 7-amino-24-[(2,6-difluorophenyl)(hydroxy)methyl]-5α-cholan-3P,4β-diol] | 4.83
C[C@H](CCCC(O)c1c(F)cccc1F)[C@H]1CC[C@H]2[C@H]3[C@H](CC[C@]12C)[C@@]1(C)CC[C@H](O)C(=O)[C@@H]1CC3(F)F (stereo partly drawn) [compound 301, (1R,3aS,3bS,5aR,7S,9aR,9bS,11aR)-1-[(2R)-6-(2,6-difluorophenyl)-6-hydroxyhexan-2-yl]-4,4-difluoro-7-hydroxy-9a,11a-dimethylhexadecahydro-1H-cyclopenta[1,2-α]phenanthren-6-one] | 0.04
C[C@H](CCCC(C)(C)O)[C@H]1CC[C@H]2[C@@H]3CC[C@H]4[C@@H](N)[C@@H](O)CC[C@]4(C)[C@H]3CC[C@]12C [compound 303, 4-amino-5α-cholest-3β,25-diol] | 7.08
CC(O)CCC[C@@H](C)[C@H]1CC[C@H]2[C@@H]3CC[C@H]4[C@@H](O)[C@@H](O)CC[C@]4(C)[C@H]3CC[C@]12C (stereo partly drawn) [compound 304, 24-(1-hydroxyethyl)-5α-cholan-3β,4β-diol] | 0.173

Source: patent US20250154193A1, “STEROID COMPOUND, AND PREPARATION METHOD THEREFOR AND APPLICATION THEREOF” (CHOLESGEN (SHANGHAI) CO., LTD., priority 2022, published 2025)
